According to patent publication EP0726261A1, “Herbidical 1,2,4 thiadiazoles” (American Cyanamid Company, priority 1995, dated 1996):

Assays:
Assay type in all cases: in vivo
Setaria viridis [1] = assay: Preemergence herbicidal activity (Example 67); design: herbicide rating, SETVI: scale not given here; conditions: pre, 800 g/ha
Method: (§1) Herbicidal evaluation of compounds of the invention is conducted on the following plant species:
(§2) The soil is a prepared horticultural substrate containing 30% peat, 20% volcanic clay, 30% bark residues and 20% polyamide/styromull in a 1:3 mixture with loamy sand. Test solutions are prepared by dissolving the test compound in acetone containing 0.5% of an alkylphenol/ethylene oxide condensate under the trademark, TRITON® X-155, and diluting with water as needed. The test solutions are applied as a spray to the 3-6 week old seedling plants at dose rates corresponding to 800g/ha in a volume equivalent to 400 L/ha. A pneumatic spraying device employing a Teejet nozzle SS 8002E operating at 3 bar is used for a predetermined time. After spraying, the treated plants are placed on greenhouse benches and cared for in a manner commensurate with conventional greenhouse practice. After 10-21 days, the treated plants are evaluated and rated according to the rating system provided below.
(§3) The soil surface is then sprayed with test solutions as described in the postemergence evaluation hereinabove. After spraying, the treated cups are placed on greenhouse benches and cared for in the manner commensurate with conventional greenhouse practice. About 1-3 weeks after treatment the cups are evaluated and rated according to the rating system provided hereinabove.

Alopecurus myosuroides [2] = assay: Preemergence herbicidal activity (Example 67); design: herbicide rating, ALOMY: scale not given here; conditions: pre, 800 g/ha
Method: as §1, §2, §3

Hordeum vulgare [3] = assay: Postemergence herbicidal activity (Example 67); conditions: pos, 800 g/ha
Method: as §1, §2

Zea mays [4] = assay: Postemergence herbicidal activity (Example 67); conditions: pos, 800 g/ha
Method: as §1, §2

Amaranthus retroflexus [5] = assay: Postemergence herbicidal activity (Example 67); conditions: pos, 800 g/ha
Method: as §1, §2

Chenopodium album [6] = assay: Postemergence herbicidal activity (Example 67); conditions: pos, 800 g/ha
Method: as §1, §2

Setaria viridis [7] = assay: Postemergence herbicidal activity (Example 67); conditions: pos, 800 g/ha
Method: as §1, §2

Galium aparine [8] = assay: Postemergence herbicidal activity (Example 67); conditions: pos, 800 g/ha
Method: as §1, §2

Alopecurus myosuroides [9] = assay: Postemergence herbicidal activity (Example 67); conditions: pos, 800 g/ha
Method: as §1, §2

Abutilon theophrasti [10] = assay: Postemergence herbicidal activity (Example 67); conditions: pos, 800 g/ha
Method: as §1, §2

Ipomoea hederacea [11] = assay: Postemergence herbicidal activity (Example 67); conditions: pos, 800 g/ha
Method: as §1, §2

Triticum aestivum [12] = assay: Postemergence herbicidal activity (Example 67); conditions: pos, 800 g/ha
Method: as §1, §2

Helianthus annuus [13] = assay: Postemergence herbicidal activity (Example 67); conditions: pos, 800 g/ha
Method: as §1, §2

Veronica persica [14] = assay: Postemergence herbicidal activity (Example 67); conditions: pos, 800 g/ha
Method: as §1, §2

Triticum aestivum [15] = assay: Preemergence herbicidal activity (Example 67); design: herbicide rating, TRZAW: scale not given here; conditions: pre, 800 g/ha
Method: as §1, §2, §3

Zea mays [16] = assay: Preemergence herbicidal activity (Example 67); conditions: pre, 800 g/ha
Method: as §1, §2, §3

Amaranthus retroflexus [17] = assay: Preemergence herbicidal activity (Example 67); conditions: pre, 800 g/ha
Method: as §1, §2, §3

Chenopodium album [18] = assay: Preemergence herbicidal activity (Example 67); conditions: pre, 800 g/ha
Method: as §1, §2, §3

Galium aparine [19] = assay: Preemergence herbicidal activity (Example 67); conditions: pre, 800 g/ha
Method: as §1, §2, §3

Abutilon theophrasti [20] = assay: Preemergence herbicidal activity (Example 67); conditions: pre, 800 g/ha
Method: as §1, §2, §3

Ipomoea hederacea [21] = assay: Preemergence herbicidal activity (Example 67); conditions: pre, 800 g/ha
Method: as §1, §2, §3

Helianthus annuus [22] = assay: Preemergence herbicidal activity (Example 67); conditions: pre, 800 g/ha
Method: as §1, §2, §3

Veronica persica [23] = assay: Preemergence herbicidal activity (Example 67); conditions: pre, 800 g/ha
Method: as §1, §2, §3

Hordeum vulgare [24] = assay: Preemergence herbicidal activity (Example 67); design: herbicide rating, HORVW: scale not given here; conditions: pre, 800 g/ha
Method: as §1, §2, §3

[25] = rated about 1-3 weeks after treatment

C[C@H](NC(=O)c1nc(-c2ccc(Cl)cc2)ns1)c1ccccc1 [Example 27, (S)-3-(4-Chlorophenyl)-[1,2,4]thiadiazole-5-carboxylic acid, 1-(phenylethyl) amide]
0: herbicide rating, SETVI (Setaria viridis [1]; [25]) | herbicide rating, ALOMY (Alopecurus myosuroides [2]; [25]) | herbicide rating, TRZAW (Triticum aestivum [15]; [25]) | herbicide rating, ZEAMX (Zea mays [16]; [25]) | herbicide rating, AMARE (Amaranthus retroflexus [17]; [25]) | herbicide rating, GALAP (Galium aparine [19]; [25]) | herbicide rating, ABUTH (Abutilon theophrasti [20]; [25]) | herbicide rating, HORVW (Hordeum vulgare [24]; [25])
2 (6-15%): herbicide rating, HORVW (Hordeum vulgare [3]; rated after 10-21 days) | herbicide rating, TRZAW (Triticum aestivum [12]; rated after 10-21 days) | herbicide rating, CHEAL (Chenopodium album [18]; [25])
3 (16-29%): herbicide rating, HELAN (Helianthus annuus [22]; [25])
6 (65-79%): herbicide rating, ABUTH (Abutilon theophrasti [10]; rated after 10-21 days)
4 (30-44%): herbicide rating, CHEAL (Chenopodium album [6]; rated after 10-21 days) | herbicide rating, ALOMY (Alopecurus myosuroides [9]; rated after 10-21 days)
7 (80-90%): herbicide rating, IPOHE (Ipomoea hederacea [11]; rated after 10-21 days) | herbicide rating, VERPE (Veronica persica [14]; rated after 10-21 days) | herbicide rating, VERPE (Veronica persica [23]; [25])
1 (1-5%): herbicide rating, IPOHE (Ipomoea hederacea [21]; [25])
5 (45-64%): herbicide rating, ZEAMX (Zea mays [4]; rated after 10-21 days) | herbicide rating, AMARE (Amaranthus retroflexus [5]; rated after 10-21 days) | herbicide rating, GALAP (Galium aparine [8]; rated after 10-21 days)
8 (91-99%): herbicide rating, SETVI (Setaria viridis [7]; rated after 10-21 days) | herbicide rating, HELAN (Helianthus annuus [13]; rated after 10-21 days)

O=C(NCc1cccs1)c1nc(-c2cccc(F)c2)ns1 [Example 44]
0: AMA RE rating (Amaranthus retroflexus [5]) | CHE AL rating (Chenopodium album [6]) | ALO MY rating (Alopecurus myosuroides [9]) | ABU TH rating (Abutilon theophrasti [10]) | HEL AN rating (Helianthus annuus [13]) | VER PE rating (Veronica persica [14]) | TRZ AW rating (Triticum aestivum [15]) | ZEA MX rating (Zea mays [16]) | AMA RE rating (Amaranthus retroflexus [17]) | CHE AL rating (Chenopodium album [18]) | GAL AP rating (Galium aparine [19]) | ABU TH rating (Abutilon theophrasti [20]) | HEL AN rating (Helianthus annuus [22]) | VER PE rating (Veronica persica [23]) | HOR VW rating (Hordeum vulgare [24])
3 (16-29%): SET VI rating (Setaria viridis [1]) | HOR VW rating (Hordeum vulgare [3]) | SET VI rating (Setaria viridis [7]) | GAL AP rating (Galium aparine [8]) | IPO HE rating (Ipomoea hederacea [11]) | TRZ AW rating (Triticum aestivum [12]) | IPO HE rating (Ipomoea hederacea [21])
4 (30-44%): ALO MY rating (Alopecurus myosuroides [2])
2 (6-15%): ZEA MX rating (Zea mays [4])

O=C(NCc1cccs1)c1nsc(-c2ccccc2)n1 [Example 49]
0: SET VI rating (Setaria viridis [1]) | ALO MY rating (Alopecurus myosuroides [2]) | TRZ AW rating (Triticum aestivum [15]) | ZEA MX rating (Zea mays [16]) | AMA RE rating (Amaranthus retroflexus [17]) | CHE AL rating (Chenopodium album [18]) | GAL AP rating (Galium aparine [19]) | ABU TH rating (Abutilon theophrasti [20]) | IPO HE rating (Ipomoea hederacea [21]) | VER PE rating (Veronica persica [23]) | HOR VW rating (Hordeum vulgare [24])
8 (91-99%): SET VI rating (Setaria viridis [7]) | HEL AN rating (Helianthus annuus [13])
6 (65-79%): GAL AP rating (Galium aparine [8])
3 (16-29%): AMA RE rating (Amaranthus retroflexus [5]) | IPO HE rating (Ipomoea hederacea [11]) | TRZ AW rating (Triticum aestivum [12]) | VER PE rating (Veronica persica [14])
5 (45-64%): ALO MY rating (Alopecurus myosuroides [9])
1 (1-5%): HEL AN rating (Helianthus annuus [22])
4 (30-44%): HOR VW rating (Hordeum vulgare [3]) | ZEA MX rating (Zea mays [4]) | CHE AL rating (Chenopodium album [6]) | ABU TH rating (Abutilon theophrasti [10])

COc1ccc(-c2nsc(C(=O)NC3CCCc4ccccc43)n2)cc1 (racemic) [Example 54]
4 (30-44%): ZEA MX rating (Zea mays [4]) | HEL AN rating (Helianthus annuus [13])
1 (1-5%): TRZ AW rating (Triticum aestivum [12])
0: SET VI rating (Setaria viridis [1]) | ALO MY rating (Alopecurus myosuroides [2]) | AMA RE rating (Amaranthus retroflexus [5]) | VER PE rating (Veronica persica [14]) | TRZ AW rating (Triticum aestivum [15]) | ZEA MX rating (Zea mays [16]) | AMA RE rating (Amaranthus retroflexus [17]) | CHE AL rating (Chenopodium album [18]) | GAL AP rating (Galium aparine [19]) | ABU TH rating (Abutilon theophrasti [20]) | IPO HE rating (Ipomoea hederacea [21]) | HEL AN rating (Helianthus annuus [22]) | VER PE rating (Veronica persica [23]) | HOR VW rating (Hordeum vulgare [24])
2 (6-15%): CHE AL rating (Chenopodium album [6]) | ALO MY rating (Alopecurus myosuroides [9]) | ABU TH rating (Abutilon theophrasti [10]) | IPO HE rating (Ipomoea hederacea [11])
3 (16-29%): HOR VW rating (Hordeum vulgare [3]) | SET VI rating (Setaria viridis [7]) | GAL AP rating (Galium aparine [8])
